Measurements from patent publication US7557133B2, “Caspase inhibitors containing isoxazoline ring” (LG Life Sciences Ltd., priority 2003, dated 2009).
Marks after values point to notes of the source that are not given here.

Key:
rheumatic arthritis = assay: Therapeutic effect for rheumatic arthritis in rats (type II collagen); type: in vivo, rat
Protocol: Female Lewis rats (7 weeks, Charles River, Japan) were kept under the conditions of 22 °C, 55% of relative humidity, and light-darkness cycle of 12 hours. Food and water were supplied ad libitum. Type II collagen (bovine) was dissolved in 0.05M acetic acid in a concentration of 2 mg/ml at 4[…], and the same amount of Complete Freund's adjuvant was added to emulsify the solution at 4[…]. 0.1 ml of thus emulsified solution was subcutaneously injected into the rattail of the Lewis rats. After 7 days, the emulsified solution was injected again in the same manner. From the date on which the second emulsified solution was injected, vehicle (a mixture of PEG400:ethanol:Tween80=15:7.5:2.5 was diluted by ten times with phosphate buffer) wherein the test compound is dissolved or the vehicle alone was orally administered into the rats every day. On Day 14 from the first injection of the collagen-containing emulsified solution, the right rear foot volume was measured again by plethysmometer (see Table 4). The edema inhibition (%) was determined by the following Equation 3. […]
Further, p-value was calculated by Student t-test from the increased foot volume on Day 14 to confirm the significance.

hepatic fibrosis = assay: Inhibitory effect against hepatic fibrosis in SD rats (biliary duct ligation, Sirius red staining); type: in vivo, rat; conditions: BDL rats, 3 or 10 mg/kg orally twice a day for 1 week
Protocol: Male Spargue-Dawley rats (6 weeks, Korea Biolink) were kept under the conditions of 22 °C, 55% of relative humidity, and light-darkness cycle of 12 hours. Food and water were supplied ad libitum. For the ligation of biliary duct, the rats were anesthetized by inhalation of 1% halothane, abdomen of the rats were cut open, the distal and proximal biliary ducts were ligated, the part between the ligation sites were cut, 2 ml of saline was injected, and sutured. Test compound (Iii) was orally administered in a dosage of 3 mg/kg or 10 mg/kg twice a day. That is, the compound was dissolved in a cosolvent (PEG400:ethanol:Tween80=15:7.5:2.5), diluted with phosphate buffer (pH 7.4) by five times, and administered. To the control group was administered the solution without the test compound. The administration was made for 1 week after 1 week from the ligation of biliary duct. After the administration, the rats were sacrificed. The livers were fixed by 10% neutral formalin and a paraffin section of 5 μm thickness was prepared and stained by 0.1% Sirius red (Direct red 80, Sigma). The tissue section was investigated by an optical microscope to observe the collagen fibers stained in red, and the results are represented in FIG. 1.

foot edema = assay: Antiphlogistic effect in rats (carrageenan foot edema); type: in vivo, rat; conditions: 3 hours after carrageenan
Protocol: Male SD rats (6 weeks, Orient) were kept under the conditions of 22 °C, 55% of relative humidity, and light-darkness cycle of 12 hours. Food and water were supplied ad libitum. Before the induction of edema, the foot volume of each rat was measured by plethysmometer. Before the induction of edema, vehicle (a mixture of PEG400: ethanol:Tween80=15:7.5:2.5 was diluted by ten times with phosphate buffer) wherein the test compound is dissolved or the vehicle alone was orally administered into the rats. Carrageenan (gamma) was dissolved in the concentration of 1% in saline, and subcutaneously injected into the right rear foot of the rats in the dosage of 100 μl. After 3 hours, the right foot volume was measured again by plethysmometer. The effect of the test compound was shown by edema inhibition (%) (see Table 3). The edema inhibition (%) was calculated according to the following Equation 2. Edema Inhibition (%)=100×(Average of the increased foot volume in the vehicle-administered group−Increased foot volume in the test compound-administered group)/Average of the increased foot volume in the vehicle-administered group Equation 2

[1] = tested on: LPS-induced acute hepatitis; assay: Therapeutic effect for LPS-induced acute hepatitis in mouse (plasma ALT); type: in vivo
Protocol: Female Balb/c mice (6 weeks, Charles River Laboratory, Osaka, Japan) were kept under the conditions of 22 °C, 55% of relative humidity, and light-darkness cycle of 12 hours. Food and water were supplied ad libitum. In pyrogen-free saline were dissolved LPS (lipopolysaccaride) and D-galactosamine in concentrations of 0.4 mg/ml and 280 mg/ml, respectively, and their 1:1 mixture was injected to mice in the amount of 5 ml/kg. Immediately after the injection of LPS and D-galactosamine, vehicle (a mixture of PEG400:ethanol:Tween80=15:7.5:2.5 was diluted by five times with saline) wherein the test compound is dissolved or the vehicle alone was intraperitoneally injected into the mice. After 8 hours from the drug injection, blood samples were obtained from their hearts.
The plasma ALT activity was determined for the blood samples obtained in Step 1 using ALT assay kit (Asan Pharm. Co., Seoul, Korea) according to the manufacturer's instruction.

[2] = Solubility (pH = 7.44 phosphate); type: physicochemical

## CC(C)[C@@]1(C(=O)NC(CC(=O)O)C(=O)CF)CC(c2nccc3ccccc23)=NO1 (stereo partly drawn) [Iii, 5-Fluoro-3-({[(5R)-5-isopropyl-3-(1-isoquinolinyl)-4,5-dihydro-5-isoxazolyl]carbonyl}amino)-4-oxopentanoic acid]
Rheumatic arthritis; 10 mg/kg oral every day, Day 14
  Foot volume (ml) Day 14 Average: 1.394* ml
Rheumatic arthritis; 10 mg/kg oral group, Day 0
  Foot volume (ml) Day 0 Average: 1.134 mL
Hepatic fibrosis
  fibrosis by Sirius Red staining: almost no fibrosis
Foot edema; 30 mg/kg oral
  Edema inhibition effect (%) Average: 20.7%
Foot edema; 100 mg/kg oral
  Edema inhibition effect (%) Average: 22.7%
[1]; in vivo
  increased activity against LPS-induced acute hepatitis model (mouse) compared with LB84068MP: about 100 times
[1]; ip, LPS and D-galactosamine, intraperitoneally injected, plasma ALT after 8 hours, read-out: ED50 (LPS + Gal)
  ED50: 0.01 mg/kg
[2]
  solubility compared with LB84068MP: improved solubility
